Source: patent US7001983B1, “Antipathogenic synthetic peptides and compositions comprising them” (priority 1997, dated 2006)
Values after ≈ are worked out from the molar mass of the structure shown. Square brackets hold non-standard residues; d marks the D form. Peptide text beside a SMILES is read from it.

Assays:
[1] = system: Pseudomonas aeruginosa ATCC 27853; details: 100% inhibition of growth after 18–20 h
Experimental: (viii) Antibacterial activity of the peptides.
Antibacterial activity of the mixtures was determined as described in Experimental procedures, section (xii).

[2] = phosphatidylglycerol/phosphatidylcholine; Beschiaschvili and Seelig, 1990; cited from earlier work
[3] = CD spectroscopy, α-helix content; type: physicochemical; details: CD in 40% TFE
Experimental: (vii) CD Spectroscopy. The CD spectra of the peptides were measured with a Jasco J-500A spectropolarimeter after calibrating the instrument with (+)-10-camphorsulfonic acid. The spectra were scanned at 23° C. in a capped, quartz optical cell with a 0.5 mm path length. Spectra were obtained at wavelengths of 250 to 190 nm. Eight scans were taken for each peptide at a scan rate of 20 nm/min. […] Fractional helicities (Greenfield and Fasman, 1969; Wu et al., 1981) were calculated as follows: [formula] where [θ]222 is the experimentally-observed mean residue ellipticity at 222 nm, and the values for [θ]^0222 and [θ]^100222, which correspond to 0% and 100% helix content at 222 nm, are estimated to be 2000 and 32000 deg·cm^2/dmole,
1.2 Determination of the secondary structure of the peptides. The secondary structures of the peptides 1, 8, 12, 14, were evaluated from their CD spectra in 40% TFE, a solvent that strongly promotes an α-helical structure, as described in Experimental Procedures, section (vii), and in PBS (35 mM phosphate buffer/0.15 M NaCl, pH 7.0).

[4] = system: Micrococcus Iuteus ATCC 9341; experiment: Antibacterial activity (MIC), growth inhibition in LB medium; type: cell-based, Micrococcus luteus; details: 100% inhibition of growth after 18–20 h
Experimental: (§1) (viii) Antibacterial activity of the peptides. The antibacterial activity of the diastereomers was examined in sterile 96-well plates (Nunc F96 microtiter plates) in a final volume of 100 μL as follows: Aliquots (50 μl) of a suspension containing bacteria at a concentration of 10^6 Colony-Forming Units (CFU)/ml LB (Lauria broth) medium were added to 50 μL of water or 66% pooled normal human serum in PBS, containing the peptide in 2-fold serial dilutions. Growth inhibition was determined by measuring the absorbance at 492 nm with a Microplate autoreader E1309 (Bio-tek Instruments), following incubation for 18–20 h at 37° C. […] The bacteria used were: Escherichia coli D21, Pseudomonas aeruginosa ATCC 27853, Acinetobacter calcoaceticus Ac11, Salmonella typhimurium LT2, Bacillus megaterium Bm11, Micrococcus Iuteus ATCC 9341, Bacillus subtilis ATCC 6051.

[5] = Membrane permeation, diffusion potential assay; details: dissipation of diffusion potential
Experimental: (xi) Membrane permeation induced by the peptides. Membrane permeation was assessed utilizing the diffusion potential assay (Loew et al., 1983; Sims et al., 1974) as previously described (Shai et al., 1991). In a typical experiment, in a glass tube, 4 μl of a liposomes suspension (final phospholipids concentration of 33 μM), in a K^+ containing buffer (50 mM K2SO4, 25 mM HEPES-SO4^−2, pH 6.8), was diluted in 1 ml of an isotonic K^+ free buffer (50 mM Na2SO4, 25 mM HEPES-SO4^−2, pH 6.8), and the fluorescent, potential-sensitive dye diS-C2-5 was then added. Valinomycin (1 μl of 10^−7 M) was added to the suspension in order to slowly create a negative diffusion potential inside the vesicles, which led to a quenching of the dye's fluorescence. Once the fluorescence had stabilized, which took 3–10 minutes, peptides were added. The subsequent dissipation of the diffusion potential, as reflected by an increase in fluorescence, was monitored on a Perkin Elmer LS-50B spectrofluorometer, with the excitation set at 620 nm, the emission at 670 nm, and the gain adjusted to 100%. The percentage of fluorescence recovery, Ft, was defined as: Ft=(It−I0/If−I0)×100 where I0=the initial fluorescence, If=the total fluorescence observed before the addition of valinomycin, and It=the fluorescence observed after adding the peptide at time t.
2.5.1 Membrane permeability induced by the peptides. […]

Sendai virus (Z strain) = details: no release of hemoglobin after incubation 37° C. 60 min
Experimental: Sendai virus (Z strain) was grown in the allantoic sac of 10–11 day old embryonated chicken eggs, harvested 48 h after injection and purified. The virus was resuspended in buffer composed of 160 mM NaCl, 20 mM tricine, pH 7.4, and stored at −70° C. Virus haemagglutinating activity was measured in haemagglutinating units (HAU). One microliter contained ˜60000 HAU. Fresh human blood was obtained from a blood bank and stored for up to 1 month at 4° C. Prior to use, erythrocytes were washed twice with PBS pH 7.2, and diluted to the desired concentration (% v/v) with the same buffer. Virions, erythrocytes and peptides were mixed in different orders of addition and various amounts. The final incubation was always at 37° C. for 60 min. followed by centrifugation at 5700 g for 10 min to remove intact cells. In all cases duplicate samples were used and two aliquots were taken from the supernatant of each sample to two wells of a 96-well plate. The amount of hemoglobin release was monitored by measuring the absorbance of the wells with the ELISA, plate reader at 540 nm. Antiviral activity was expressed as the minimal inhibitory concentration (MIC), the concentration at which no release of hemoglobin was observed after incubation.

[6] = system: human red blood cells (hRBC); experiment: Hemolysis of human red blood cells; type: cell-based; details: for % hemolysis at 50 μM peptide: hRBC, 30 min at 37° C.
In short: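 Washed fresh erythrocytes at 5% v/v final in PBS pH 7.3 exposed to peptide 30 min at 37° C with agitation. Hemoglobin release read as supernatant absorbance at 540 nm after centrifugation, scaled between PBS (0%) and 1% Triton (100%).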

[7] = system: Leishmania mexicana NR strain promastigotes; experiment: Anti-Leishmania activity, counting living promastigotes; type: cell-based; details: 100% death after 24 h of incubation
Experimental: The melittin-derived diastereomer peptide 20 (see Example 2 above) and the Leu/Lys diastereomer peptide 23 (see Example 3 above) were tested against Leishmania. Promastigotes of the Leishmania mexicana NR strain to be assayed were cultured at 27° C. in RPMI 1640 medium supplemented with 10% fetal bovine serum. Parasite were harvested by centrifugation at 1200×g for 10 min at 4° C. and washed twice with PBS (50 mM sodium phosphate, 150 mM NaCl, pH 7). The washed promastigotes were counted in a hemocytometer and adjusted to 1×10^6 parasites/ml. Aliquotes of this suspension were assayed in a final volume of 100 μl by counting living (motile) cells after 24 h of incubation at 26° C. in the absence or presence of various concentrations of the diastereomers.

Bacillus megaterium Bm11 = type: cell-based; details: 100% inhibition of growth after 18–20 h
[8] = system: Acinetobacter calcoaceticus Ac11; type: cell-based; details: 100% inhibition of growth after 18–20 h
Escherichia coli D21 = type: cell-based; details: 100% inhibition of growth after 18–20 h
[9] = system: Salmonella typhimurium LT2; experiment: Antibacterial activity (MIC), growth inhibition in LB medium; type: cell-based; details: 100% inhibition of growth after 18–20 h
Experimental: as §1

[10] = system: Bacillus subtilis ATCC 6051; type: cell-based; details: 100% inhibition of growth after 18–20 h
[11] = system: human red blood cells (hRBC); details: Oren and Shai, 1996; cited from earlier work

Row | Compound | Minimal Inhibitory Concentration P. aeruginosa (ATCC 27853) [1] [µM] | Minimal Inhibitory Concentration M. luteus (ATCC 9341) [4] [µM] | MIC Leishmania mexicana [7] [µM] | Minimal Inhibitory Concentration B. megaterium (Bm11) (Bacillus megaterium Bm11) [µM] | % hemolysis at 50 μM peptide [6] [%] | Minimal Inhibitory Concentration A. calcoaceticus (Ac11) [8] [µM] | Minimal Inhibitory Concentration E. coli (D21) (Escherichia coli D21) [µM] | also measured
1 | CC[C@H](C)[C@H](NC(=O)CN)C(=O)NCC(=O)N[C@@H](C)C(=O)N[C@H](C(=O)N[C@@H](CC(C)C)C(=O)N[C@@H](CCCCN)C(=O)N[C@H](C(=O)N[C@@H](CC(C)C)C(=O)N[C@H](C(=O)N[C@H](C(=O)NCC(=O)N[C@@H](CC(C)C)C(=O)N1CCC[C@H]1C(=O)N[C@@H](C)C(=O)N[C@@H](CC(C)C)C(=O)N[C@H](C(=O)N[C@@H](CO)C(=O)N[C@@H](Cc1c[nH]c2ccccc12)C(=O)N[C@H](C(=O)N[C@@H](CCCCN)C(=O)N[C@@H](CCCNC(=N)N)C(=O)N[C@@H](CCCCN)C(=O)N[C@@H](CCCNC(=N)N)C(=O)N[C@@H](CCC(N)=O)C(=O)N[C@@H](CCC(N)=O)C(N)=O)[C@@H](C)CC)[C@@H](C)CC)[C@@H](C)O)[C@@H](C)O)C(C)C)C(C)C [Melittin] | 25 | 0.4 |  |  |  |  |  | partition coefficient reported for melittin binding [2]: 4.5±0.6×10^4 M^−1; α-helix content [3]: 73%; membrane permeating activity with PC (zwitterionic) vesicles [5]: highly active
2 | CC(C)C[C@H](NC(=O)[C@H](CCCCN)NC(=O)[C@@H](CC(C)C)NC(=O)[C@@H](CC(C)C)NC(=O)[C@H](CC(C)C)NC(=O)[C@@H](N)CCCCN)C(=O)N[C@@H](CC(C)C)C(=O)N[C@H](CC(C)C)C(=O)N[C@@H](CCCCN)C(=O)N[C@H](CC(C)C)C(=O)N[C@@H](CC(C)C)C(=O)N[C@@H](CCCCN)C(N)=O [Peptide 23, [D]-L^3,4,8,10-K4L8] (H-KL[dL][dL]KLL[dL]K[dL]LK-NH2) |  |  | 17 (≈ 24.4 µg/mL) |  |  |  |  | MIC Sendai virus (Sendai virus (Z strain)): 80 µM (≈ 115 µg/mL); hemolytic activity in comparison to melittin (fold less) [6]: > 100 fold; % hemolysis at 100 μM ([6]; red cells of human, 100): 0%
3 | CC[C@@H](C)[C@@H](NC(=O)[C@H](CC(C)C)NC(=O)[C@H](C)NC(=O)[C@@H]1CCCN1C(=O)[C@H](CC(C)C)NC(=O)CNC(=O)[C@@H](NC(=O)[C@@H](NC(=O)[C@H](CC(C)C)NC(=O)[C@H](NC(=O)[C@H](CCCCN)NC(=O)[C@H](CC(C)C)NC(=O)[C@H](NC(=O)[C@H](C)NC(=O)CNC(=O)[C@@H](NC(=O)CN)[C@@H](C)CC)C(C)C)C(C)C)[C@@H](C)O)[C@@H](C)O)C(=O)N[C@@H](CO)C(=O)N[C@@H](Cc1c[nH]c2ccccc12)C(=O)N[C@H](C(=O)N[C@H](CCCCN)C(=O)N[C@@H](CCCNC(=N)N)C(=O)NCCN)[C@@H](C)CC [Peptide 20, [D]-V^5V^8I^17K^21-[1-22]-TAmel] |  | 29 | 32 (≈ 75.2 µg/mL) | 0.8 | 0 | 7 | 8 | 
4 | CC[C@H](C)[C@H](NC(=O)[C@H](CCCCN)NC(=O)[C@@H]1CCCN1C(=O)[C@@H](NC(=O)[C@H](CC(C)C)NC(=O)[C@H](C)NC(=O)[C@H](Cc1ccccc1)NC(=O)[C@H](Cc1ccccc1)NC(=O)CN)[C@@H](C)CC)C(=O)N[C@H](C(=O)N[C@@H](CO)C(=O)N[C@@H](CO)C(=O)N1CCC[C@H]1C(=O)N[C@@H](CC(C)C)C(=O)N[C@@H](Cc1ccccc1)C(=O)N[C@@H](CCCCN)C(=O)N[C@H](C(=O)N[C@@H](CC(C)C)C(=O)N[C@@H](CC(C)C)C(=O)N[C@@H](CO)C(=O)N[C@@H](C)C(=O)N[C@H](C(=O)NCC(=O)N[C@@H](CO)C(=O)N[C@@H](C)C(=O)N[C@@H](CC(C)C)C(=O)N[C@@H](CO)C(=O)N[C@@H](CO)C(=O)N[C@@H](CO)C(=O)NCC(=O)NCC(=O)N[C@@H](CCC(N)=O)C(=O)N[C@@H](CCC(=O)NCCN)C(=O)NCCN)C(C)C)[C@@H](C)O)[C@@H](C)CC [Peptide 8, TApar] | 8 | 5 |  | 0.8 | 100 | 3 | 3 | Minimal Inhibitory Concentration S. typhimurium (LT2) [9]: 15 µM; Minimal Inhibitory Concentration B. subtilis (ATCC 6051) [10]: 1.5 µM
5 | Pardaxin |  |  |  |  |  |  |  | hemolytic activity towards human erythrocytes relative to melittin (fold less) [11]: 40–100 fold
